Series [1] deals with AsPC-1 (G12D) and BxPC-3 (WT). Description: spheroid proliferation assay using CellTiter-Glo Assay. Format: cell-based. The method, then:
FIGS. 2A-2B are graphs of spheroid proliferation assay of AsPC-1 (G12D) and BxPC-3 (WT) using CellTiter-Glo Assay. […] The ligand assayed was Ac-wkyf-Lys(Pal) (SEQ ID NO:46). BxPC-3 and AxPC-1 were cultured as spheroids to compare the cell viability to that observed under adherent conditions. […] These conditions more closely parallel the tumor microenvironment.

Another series concerns pERK in AsPC-1 cells. The series can be described thus: pERK levels in AsPC-1 cells, Western blot normalized to tubulin (pERK_G12D). Format: cell-based. The conditions noted are these: FIG. 3, incubated for 12 hours. How it is done:
FIG. 3 is a graph of pERK levels measured in BxPC-3 cells (first eight bars) and AsPC-1 cells (last eight bars) in the presence of different ligands or controls. For each cell type, the graph bars are, from left to right: cell only, DMSO 1.25%, BI-2852, KRpep-2d, NH2-wkyf (SEQ ID NO:46), Ac-wkyf (SEQ ID NO:46), Pal-wkyf (SEQ ID NO:46), Ac-wkyf-Lys(Pal) (SEQ ID NO:46). The levels of pERK are normalized to tubulin. The cells were grown overnight, treated with the ligands, incubated for 12 hours, lysed, gel electrophoresed, and Western blotted. Phosphorylation of ERK is a KRAS-dependent signaling target. […] BI-2852 and Krpep-2d are two positive controls developed by Boehringer Ingelheim and Takeda.
FIG. 5 is a graph of pERK inhibition in BxPC-3 cells (first eight bars) and AsPC-1 cells (last eight bars) in the presence of the substituted ligands of FIG. 3. For each cell type, the graph bars are, from left to right: DMSO 0.5%, KRpep-2d, Ac-wkyf-Lys(Pal) (SEQ ID NO:46), Ac-w(Dab)yf-Lys(Pal), Ac-wk(4-Br-f)f-Lys(Pal), Ac-wky(4-Br-f)-Lys(Pal), Ac-wky(2-Nal)-Lys(Pal), wkyf (SEQ ID NO:46).
Tables 15A-15E provide a summary of the activity and effects of various of the disclosed wkyf-based cyclic peptides. […] MTT_G12D used AsPc-1 at 5 μM. MTT_WT used BxPC-3 at 5 μM. pERK_G12D used AsPC-1 at 4 μM for 12 hours. pERK_WT used BxPC-3 at 4 μM for 12 hours.

A short description of series [2]: tolerability of Indi-199 in PBS. The conditions noted are these: simple formulation (PBS). Format: in vivo, mouse.
The nature of series [3]: mouse pharmacokinetics of Indi-199 by IV, IP and PO. It counts as in vivo. The note with it: for half-life: read-out: T½ (converted). The text has this:
FIG. 14 is a graph of mouse pharmacokinetics of Indi-199, an example of the disclosed cyclic peptides, by different administration routes (IV, IP, and PO).

For series [4], the system named is AsPC1 (G12D mutant) cell line, BxPC3 (wild type), and SW 1990 (G12D mutant). The note with it: confocal microscopy, Streptavidin-phycoerythrin (PE) visualization. How it is done: A biotinylated KRAS(G12D) targeted cyclic peptide and an equivalent agent with membrane targeting capability were tested for membrane association using confocal microscopy. Binding to AsPC1 (G12D mutant) cell line, BxPC3 (wild type), and SW 1990 (G12D mutant) were compared.

The target in a further series is T1, KRAS (G12D) (Homo sapiens, UniProt P01116, G12D).
T1 construct: decreasing or depleting levels of KRAS (G12D) in pancreatic cancer cells; endogenous in cells
Description: Western blot of KRAS (G12D) levels in pancreatic cell lysate. It counts as cell-based. The note with it: pancreatic cancer cells incubated with the peptide. The text has this: The disclosed cyclic peptides can be used, for example, in methods for inhibiting the KRAS (G12D) oncoprotein. Such methods can include treating cancer cells having the KRAS (G12D) mutation. […] In some forms, a cyclic peptide of Formula I can be used to inhibit KRAS (G12D) expressed in any cancer cell. For example, the KRAS (G12D) oncoprotein has been identified in pancreatic, colorectal, lung, biliary tract, and ovarian cancer cells.

The mark [5] stands for this setting: in vivo, mouse, 20 mg/kg IP, 4 mg/mL in PBS.
Where [6] appears, read: in vivo, mouse, 20 mg/kg IV bolus, 4 mg/mL in PBS.
Setting [7] is: in vivo, mouse, 50 mg/kg PO, 5 mg/mL in PBS.

Like-named read-outs stand apart in the source and are kept apart here. Where a SMILES comes first, the peptide text is derived from it. Bridges are numbered along the chain shown (N, C = ends). Triazole bridges read from a SMILES are 1,4-linked. Where no end group is shown, it is not given here. [ ]: non-standard residue; d: D form. The star is where a group is joined. Phe(4-guanidino) = N=C(N)Nc1ccc(C[C@H](N)C(=O)O)cc1; dLys(N3) = [N-]=[N+]=NCCCC[C@@H](N)C(=O)O; dPhe(4-Cl) = N[C@H](Cc1ccc(Cl)cc1)C(=O)O; Lys(N3) = [N-]=[N+]=NCCCC[C@H](N)C(=O)O; Morpholinoacetyl = O=C(CN1CCOCC1)*; Palmitoyl = CCCCCCCCCCCCCCCC(=O)*; dPra = C#CC[C@@H](N)C(=O)O; Pra = C#CC[C@H](N)C(=O)O

Consider `CCCCCCCCCCCCCCCC(=O)NCCCC[C@@H](NC(=O)[C@H]1CCCCn2cc(nn2)C[C@@H](NC(C)=O)C(=O)N[C@@H](Cc2c[nH]c3ccccc23)C(=O)N[C@@H](CCCCN)C(=O)N[C@@H](Cc2ccc(O)cc2)C(=O)N[C@@H](Cc2ccccc2)C(=O)N1)C(N)=O` [Ac-wkyf-Lys(Pal)] (Ac-[dPra]WKYF[dLys(N3)][dK](Palmitoyl)-NH2; triazole 1-6), for which the “selectivity under spheroid culturing” value in series [1] (FIG. 2B, spheroid vs adherent culture, AsPC-1 (G12D) vs BxPC-3 (WT)) is on record as “selectivity persist under spheroid culturing”. In addition, the “reduction of cell viability, spheroid compared to adherent conditions” value in series [1] (FIGS. 2A-2B, CellTiter-Glo) is given as “more effective at reducing cell viability”. Besides, the pERK inhibitory effect result in the series on pERK in AsPC-1 cells is recorded as “most inhibitory effects”.
Take `CCCCCCCCCCCCCCCC(=O)NCCCC[C@H](NC(=O)[C@@H]1CCCCn2cc(nn2)C[C@H](NC(=O)CN2CCOCC2)C(=O)N[C@H](Cc2c[nH]c3ccccc23)C(=O)N[C@H](CCCCN)C(=O)N[C@H](Cc2ccc(O)cc2)C(=O)N[C@H](Cc2ccc(Cl)cc2)C(=O)N1)C(N)=O` [Indi-199] (Morpholinoacetyl-[Pra][dW][dK][dY][dPhe(4-Cl)][Lys(N3)]K(Palmitoyl)-NH2; triazole 1-6): the tolerability result in series [2] is given as “well tolerated”. Also, in series [3] (setting [5]), the AUC(0-inf) was found to be 316 µM·h, the AUC(0-t) worked out at 213 µM·h, the Cmax worked out at 12 µM and the Tmax is 6 h. Also, the half-life in series [3] (in vivo, mouse, 20 mg/kg IP, 4 mg/mL in PBS, terminal elimination phase inadequately defined) was 13.4 h. In addition, in series [3] (setting [6]), the area under the curve AUC(0-inf) was found to be 403 µM·h, the area under the curve AUC(0-t) came to 402 µM·h, the Cmax worked out at 252 µM and the Tmax stood at 0 h. Besides, in series [3] (setting [6]), the clearance was found to be 0.587 mL/min/kg and the half-life is 2.72 h. In series [3] (in vivo, mouse, 20 mg/kg IV bolus, 4 mg/mL in PBS, read-out: Vdss), the Vd was 0.0976 L/kg. Also, in series [3] (setting [7]), the exposure AUC(0-t) turned out to be 0.182 µM·h, the highest level (Cmax) was 0.033 µM, the Tmax was found to be 4 h and the bioavailability was 0.018%. Moreover, the exposure entry in series [3] (iv and ip administration, FIG. 14) was “sustained exposure”.
With Biotin-wky(4-Cl-F)-Lys(Pal), in series [4], the membrane association result is “demonstrated membrane association”.
Take “QNGnfY (QN[Phe(4-guanidino)]Y; also: cyclic, closure not given here, D-amino acids, places not given here)”: the “levels of KRAS (G12D)” value in the series with KRAS (G12D) is reported as “capable of decreasing or depleting levels of KRAS (G12D)”.

(Values after patent publication US20220323614A1, “KRAS-SPECIFIC CYCLIC PEPTIDES, COMPOSITIONS, AND METHODS OF USING AND MAKING” (Indi Molecular, Inc., priority 2021, published 2022).)
